The text below walks through data of ChEMBL document CHEMBL4422615, “Novel non-xanthine antagonist of the A2B adenosine receptor: From HTS hit to lead structure” (Eur J Med Chem, 2019).

For data set [1], the target named is T1, PXR (Homo sapiens, UniProt O75469).
T1 sequence (O75469 whole entry): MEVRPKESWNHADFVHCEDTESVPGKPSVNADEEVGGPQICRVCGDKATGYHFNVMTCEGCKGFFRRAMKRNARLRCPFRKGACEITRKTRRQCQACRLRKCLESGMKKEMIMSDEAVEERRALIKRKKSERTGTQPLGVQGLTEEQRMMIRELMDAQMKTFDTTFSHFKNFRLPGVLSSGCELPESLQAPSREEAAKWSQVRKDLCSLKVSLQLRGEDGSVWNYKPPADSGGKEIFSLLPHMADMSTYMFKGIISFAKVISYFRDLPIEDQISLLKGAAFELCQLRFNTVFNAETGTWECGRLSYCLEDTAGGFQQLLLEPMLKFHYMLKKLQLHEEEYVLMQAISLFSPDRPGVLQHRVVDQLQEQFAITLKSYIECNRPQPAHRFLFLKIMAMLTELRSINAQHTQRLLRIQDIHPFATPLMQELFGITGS
The experiment in a line: Activation of PXR in human HepG2 cells assessed as induction of CYP3A4 expression at 2 x 10^-9 to 50 x 10^-6 mol/L by luciferase reporter gene assay relative to control. It is filed as ADME, cell-based. A general note: A reporter such as luciferase makes a cellular process visible.

Data set [2] is described as follows: Half life in dog at 1 mg/kg, po for 15 mins by HPLC-MS/MS analysis. The format is ADME, organism-based, Canis lupus familiaris. Conditions: in vivo.
Data set [3] in a line: Half life in mouse at 1 mg/kg, iv administered as bolus dose by HPLC-MS/MS analysis. The format is ADME, organism-based. Conditions: in vivo.
The nature of data set [4]: Dose normalized AUC in rat at 1 mg/kg, po for 15 mins by HPLC-MS/MS analysis. The following applies: in vivo, 0.25 h. It is filed as ADME, organism-based.
Data set [5] has as its target Adenosine receptor A2a (Homo sapiens, UniProt P29274). The experiment in a line: Antagonist activity at recombinant human A2A adenosine receptor expressed in CHO cells after 3 to 4 hrs by luciferase reporter gene assay. The format is cell-based.
The subject of data set [6] is Mus musculus. The experiment in a line: Antifibrotic activity in silica-induced C57BL/6J mouse pulmonary fibrosis model assessed as reduction in lung weight at 100 to 500 mg/kg, bid administered via gavage treated from day 1 until day 7 after silica application. It is filed as functional, organism-based.
Data set [7] deals with Mus musculus. Put plainly: Antifibrotic activity in FITC-induced C57BL/6J mouse pulmonary fibrosis model assessed as reduction in osteopontin level in BALF at 100 to 500 mg/kg, bid administered via gavage pretreated for 45 mins before FITC addition until 72 hrs after FITC application by ELISA. The format is functional, organism-based.
Data set [8] in a line: Dose normalized Cmax in dog at 1 mg/kg, po for 15 mins by HPLC-MS/MS analysis. The format is ADME, organism-based, Canis lupus familiaris. Conditions: in vivo, 0.25 h.
Data set [9] is described as follows: Efflux ratio in human Caco2 cells. It is filed as ADME, cell-based. Conditions: Caco-2. On the technique in general: Caco-2 cells form a polarised layer with tight junctions and transporters.
Data set [10] can be described thus: Blood clearance in human by measuring intrinsic clearance in human hepatocytes by MS/MS analysis. The format is ADME, cell-based.
Data set [11] in a line: MRT in rat at 0.3 mg/kg, iv administered as infusion for 15 mins by HPLC-MS/MS analysis. Conditions: in vivo. It is filed as ADME, organism-based.
Data set [12] can be described thus: Oral bioavailability in mouse at 1 mg/kg administered as bolus dose by HPLC-MS/MS analysis. It is filed as ADME, organism-based. The following applies: in vivo.
A short description of data set [13]: Blood clearance in human by measuring intrinsic clearance in human liver microsomes by MS/MS analysis. The format is ADME. On the technique in general: Microsomes from liver hold many membrane-bound enzymes, among them those of drug oxidation.

The structures appear in SMILES notation. Activity calls are given as the source filed them.

Chain of Adenosine receptor A2a (P29274 whole entry): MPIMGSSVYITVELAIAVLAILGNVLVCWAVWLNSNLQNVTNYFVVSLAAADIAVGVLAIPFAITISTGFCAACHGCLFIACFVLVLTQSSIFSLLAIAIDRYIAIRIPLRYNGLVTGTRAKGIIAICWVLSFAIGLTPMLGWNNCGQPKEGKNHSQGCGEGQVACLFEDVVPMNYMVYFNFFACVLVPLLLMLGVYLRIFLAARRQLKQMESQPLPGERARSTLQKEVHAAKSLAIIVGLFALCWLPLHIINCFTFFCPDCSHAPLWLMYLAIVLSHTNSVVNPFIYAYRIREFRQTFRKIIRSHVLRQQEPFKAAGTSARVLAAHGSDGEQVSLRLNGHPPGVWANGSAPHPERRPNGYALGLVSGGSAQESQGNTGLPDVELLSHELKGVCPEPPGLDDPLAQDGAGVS

What is called Emax is the size of the effect at its maximum, as opposed to the concentration needed. For orientation: half-life means the time needed for the level to fall by half in the phase considered. Low values mean rapid decline, high ones slow decline. For orientation: IC50 means the concentration that inhibits the measured activity by half. As a reminder, the efflux ratio is a quotient of directional permeabilities that is used to spot active efflux. What is called MRT is the average time that molecules of a dose stay in the body. One may read the bioavailability as the share of a dose that reaches the circulation, judged against a reference dose that is usually intravenous. In the case of `CCn1c(=O)c2c(C)c(C(=O)N3CCC(O)CC3)sc2n(CCC(F)(F)F)c1=O`, the Emax in data set [1] was 16%. Moreover, the half-life was 5.1 h in data set [2] and 2.1 h in data set [3]. This compound returned an AUC/dose in [4] of 0.78 kg·h/L. For the same compound, the IC50 in [5] is 820 nM. Also, the result in data set [6] and in [7] was Active. In addition, the Cmax/dose in data set [8] worked out at 0.61 kg/L. Also, the efflux ratio in data set [9] worked out at 0.82. Besides, the CLhep predicted in [10] was under 3.5 mL/min/kg; in [13], 3.67 mL/min/kg. In data set [11], this compound yielded an MRT of 1.3 h. This compound had a bioavailability in data set [12] of 65%.
